Measurements: ChEMBL document CHEMBL1201862, “PubChem BioAssay data set” (2004)
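A five-concentration, 48-hour dose response in 96-well plates underlies each endpoint, interpolated linearly between surrounding concentrations. GI50 = concentration required for 50% inhibition of growth.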 Calls of active or inactive are those of the source. Rule as the data show it: active = GI50 up to about 1.1 µM and inactive = higher.

Key:
Assay in all cases: NCI-60 cell line screen, 48 h
ACHN = system: ACHN
KM12 = system: KM12
UO-31 = system: UO-31
SW-620 = system: SW-620
NCI-H226 = system: NCI-H226
UACC-257 = system: UACC-257
Malme-3M = system: Malme-3M
SF-539 = system: SF-539
HCT-116 = system: HCT-116
A498 = system: A498
CAKI-1 = system: CAKI-1
SK-MEL-28 = system: SK-MEL-28
BT-549 = system: BT-549
CCRF-CEM = system: CCRF-CEM
HCT-15 = system: HCT-15
MOLT-4 = system: MOLT-4
NCI/ADR-RES = system: NCI/ADR-RES
LOX IMVI = system: LOX IMVI
SF-268 = system: SF-268
SNB-19 = system: SNB-19
UACC-62 = system: UACC-62
HOP-92 = system: HOP-92
RXF 393 = system: RXF 393
EKVX = system: EKVX
DU-145 = system: DU-145
SNB-75 = system: SNB-75
OVCAR-3 = system: OVCAR-3
MCF7 = system: MCF7
U-251 = system: U-251
PC-3 = system: PC-3
MDA-MB-435 = system: MDA-MB-435
OVCAR-5 = system: OVCAR-5
SK-OV-3 = system: SK-OV-3
IGROV-1 = system: IGROV-1
Hs-578T = system: Hs-578T
SF-295 = system: SF-295
K562 = system: K562
A549 = system: A549
M14 = system: M14
HCC 2998 = system: HCC 2998
NCI-H23 = system: NCI-H23
TK-10 = system: TK-10
MDA-MB-231 = system: MDA-MB-231
HL-60 = system: HL-60
786-0 = system: 786-0
HT-29 = system: HT-29
MDA-N = system: MDA-N
NCI-H522 = system: NCI-H522
SK-MEL-5 = system: SK-MEL-5
OVCAR-8 = system: OVCAR-8
OVCAR-4 = system: OVCAR-4
SK-MEL-2 = system: SK-MEL-2
HOP-62 = system: HOP-62
SN12C = system: SN12C
COLO 205 = system: COLO 205
RPMI-8226 = system: RPMI-8226
SR = system: SR
T47D = system: T47D
NCI-H460 = system: NCI-H460
SNB-78 = system: SNB-78
DMS-273 = system: DMS-273
LXFL 529 = system: LXFL 529
HOP-18 = system: HOP-18

Measured: GI50

CSc1ccc(NC(=O)Nc2cc(C)ccn2)cc1
> 100 µM: HCT-15
inactive: ACHN > 100 µM | KM12 > 100 µM | UO-31 > 100 µM | SW-620 > 100 µM | NCI-H226 > 100 µM | UACC-257 > 100 µM | Malme-3M > 100 µM | SF-539 2.36 µM | HCT-116 > 100 µM | A498 > 100 µM | CAKI-1 > 100 µM | SK-MEL-28 > 100 µM | BT-549 > 100 µM | CCRF-CEM > 100 µM | MOLT-4 > 100 µM | NCI/ADR-RES > 100 µM | LOX IMVI > 100 µM | SF-268 > 100 µM | SNB-19 > 100 µM | UACC-62 > 100 µM | HOP-92 > 100 µM | RXF 393 > 100 µM | EKVX > 100 µM | DU-145 > 100 µM | SNB-75 > 100 µM | OVCAR-3 > 100 µM | MCF7 > 100 µM | U-251 > 100 µM | PC-3 > 100 µM | MDA-MB-435 > 100 µM | OVCAR-5 > 100 µM | SK-OV-3 > 100 µM | IGROV-1 > 100 µM | Hs-578T > 100 µM | SF-295 > 100 µM | K562 > 100 µM | A549 > 100 µM | M14 > 100 µM | HCC 2998 91.4 µM | NCI-H23 > 100 µM | TK-10 > 100 µM | MDA-MB-231 > 100 µM | HL-60 > 100 µM | 786-0 > 100 µM | HT-29 > 100 µM | MDA-N > 100 µM | NCI-H522 > 100 µM | SK-MEL-5 > 100 µM | OVCAR-8 > 100 µM | OVCAR-4 > 100 µM | SK-MEL-2 > 100 µM | HOP-62 > 100 µM | SN12C > 100 µM | COLO 205 > 100 µM | RPMI-8226 > 100 µM | SR > 100 µM | T47D > 100 µM | NCI-H460 > 100 µM

CC(C)C(=O)CC(c1ccc(Cl)cc1)N1N=C(C(C)C)CC1c1ccc(Cl)cc1 (centres undefined)
inactive: KM12 40.6 µM | SNB-78 5.97 µM | SW-620 37.2 µM | NCI-H226 > 100 µM | SK-MEL-28 40.7 µM | HOP-92 > 86.3 µM | EKVX 29.5 µM | SNB-75 86.9 µM | LXFL 529 98.4 µM | NCI-H23 22.6 µM | TK-10 > 100 µM | HT-29 14.6 µM | SK-MEL-2 > 51.5 µM | HOP-62 70 µM
active: Malme-3M < 0.01 µM | LOX IMVI < 0.01 µM | DMS-273 < 10 nM | SK-OV-3 < 0.01 µM | NCI-H522 < 0.01 µM | HOP-18 < 10 nM | SN12C < 0.01 µM

CN(C)CCNC(=O)c1c(O)ccc2c1c1c(n2CCc2ccccc2)C(=O)c2ccccc2C1=O
active: CCRF-CEM 0.826 µM | RXF 393 0.302 µM
inactive: ACHN 9.18 µM | KM12 4.15 µM | UO-31 5.26 µM | SW-620 6.93 µM | NCI-H226 16.8 µM | UACC-257 5.37 µM | Malme-3M 3.63 µM | SF-539 5.37 µM | HCT-116 3.6 µM | A498 14.8 µM | CAKI-1 7.08 µM | SK-MEL-28 1.98 µM | BT-549 16.1 µM | MOLT-4 4.42 µM | NCI/ADR-RES 13.5 µM | LOX IMVI 2.43 µM | SF-268 4.15 µM | SNB-19 9.68 µM | UACC-62 2.76 µM | HOP-92 8.97 µM | EKVX 14.6 µM | DU-145 4.57 µM | SNB-75 14.4 µM | OVCAR-3 12.9 µM | MCF7 3.37 µM | U-251 4.4 µM | PC-3 12 µM | MDA-MB-435 2.17 µM | OVCAR-5 15.5 µM | SK-OV-3 16.4 µM | IGROV-1 8.47 µM | Hs-578T 9.73 µM | SF-295 4.06 µM | K562 2.39 µM | A549 8.53 µM | M14 1.93 µM | HCC 2998 1.22 µM | NCI-H23 14.4 µM | TK-10 7.93 µM | MDA-MB-231 5.27 µM | HL-60 9.18 µM | 786-0 4.36 µM | HT-29 6.82 µM | MDA-N 2.25 µM | NCI-H522 8.67 µM | SK-MEL-5 2.96 µM | OVCAR-8 8.36 µM | OVCAR-4 11.6 µM | SK-MEL-2 5.87 µM | HOP-62 10.6 µM | SN12C 6.56 µM | COLO 205 15.8 µM | RPMI-8226 2.75 µM | SR 2.58 µM | T47D 3.66 µM | NCI-H460 3.58 µM
4.47 µM: HCT-15
